{"source": "patent EP1561465A2", "about": "“Methods of use of fluoroquinolone compounds against bacteria” (LG Life Sciences, Ltd., priority 1999, dated 2001)", "key": {"Streptococcus pneumoniae [1]": {"tested_on": "Streptococcus pneumoniae", "test": "MIC by E-test (broth microdilution for gemifloxacin), 107 pneumococcal carrier isolates, Athens 1998", "type": "cell-based", "details": "E-test; for MIC50 / MIC90: Streptococcus pneumoniae; for MIC50: read-out: MIC50; for MIC90: read-out: MIC90", "experimental": "Susceptibility testing was performed by agar dilution or epsilometer method (E-test), as recommended by the NCCLS. […] The susceptibility profiles of the strains were assessed using the Epsilometer method (E-test). The isolates were subdivided into two groups according to their penicillin susceptibility patterns (penicillin-susceptible and penicillin-intermediate."}, "P. aeruginosa [2]": {"tested_on": "P. aeruginosa", "test": "Urinary bactericidal titers (UBT) and AUBTC of volunteers' urine", "type": "cell-based", "details": "P. aeruginosa (16) Laboratory No. 568; urine after gemifloxacin 320 mg or ofloxacin 400 mg"}, "Streptococcus pneumoniae [3]": {"tested_on": "Streptococcus pneumoniae", "test": "MIC by broth microdilution (NCCLS), dried MicroScan panels, clinical isolates 1998-1999", "type": "cell-based", "details": "for MIC90: Streptococcus pneumoniae"}, "E. faecalis [4]": {"tested_on": "E. faecalis", "test": "MIC and MBC by microdilution in Mueller-Hinton broth, uropathogens", "type": "cell-based", "details": "Enterococcus faecalis", "experimental": "(§1) MICs and MBCs were determined by a microdilution method with Mueller-Hinton broth. An inoculum of 1.3-9.4 x 10^5 colony forming units (CFU) per ml was used.\n(§2) Strains included a reference strain E. coli ATCC 25922, susceptible to nalidixic acid (Nal-S) and the following clinical isolates obtained from complicated UTI patients: E. coli (resistant to nalidixic acid), K. pneumoniae, P. mirabilis , P. aeruginosa, […] (3 strains) and Enterococcus faecalis (2 strains)."}, "P. mirabilis": {"tested_on": "P. mirabilis", "test": "MIC and MBC by microdilution in Mueller-Hinton broth, uropathogens", "type": "cell-based", "experimental": "as §1, §2"}, "K. pneumoniae": {"tested_on": "K. pneumoniae", "test": "MIC and MBC by microdilution in Mueller-Hinton broth, uropathogens", "type": "cell-based", "experimental": "as §1, §2"}, "S. aureus [5]": {"tested_on": "S. aureus", "test": "MIC and MBC by microdilution in Mueller-Hinton broth, uropathogens", "type": "cell-based", "details": "Staphylococcus aureus", "experimental": "as §1, §2"}, "E. coli": {"tested_on": "E. coli", "test": "MIC and MBC by microdilution in Mueller-Hinton broth, uropathogens", "type": "cell-based", "experimental": "as §1, §2"}, "P. aeruginosa [6]": {"tested_on": "P. aeruginosa", "test": "MIC and MBC by microdilution in Mueller-Hinton broth, uropathogens", "type": "cell-based", "experimental": "as §1, §2"}, "Pseudomonas aeruginosa": {"tested_on": "Pseudomonas aeruginosa", "test": "MIC by agar dilution (NCCLS), 322 nosocomial Gram negative isolates, Athens 1998", "type": "cell-based", "details": "n = 57 isolates"}, "Streptococcus pneumoniae [7]": {"tested_on": "Streptococcus pneumoniae", "test": "MIC by agar dilution (NCCLS), 411 isolates Buenos Aires 1998-99", "type": "cell-based", "details": "for MIC / MIC90: Streptococcus pneumoniae; for MIC: Ciprofloxacin-resistant S. pneumoniae, read-out: MIC; for MIC90: read-out: MIC90"}, "[8]": {"design": "species or system healthy volunteers", "details": "human, in vivo, po"}, "S. aureus [9]": {"tested_on": "S. aureus", "test": "Urinary bactericidal titers (UBT) and AUBTC of volunteers' urine", "type": "cell-based", "details": "urine after gemifloxacin 320 mg or ofloxacin 400 mg"}, "E. faecalis [10]": {"tested_on": "E. faecalis", "test": "Urinary bactericidal titers (UBT) and AUBTC of volunteers' urine", "type": "cell-based", "details": "urine after gemifloxacin 320 mg or ofloxacin 400 mg"}, "[11]": {"details": "Penicillin-intermediate S. pneumoniae (n = 24)"}, "[12]": {"details": "Penicillin-susceptible S. pneumoniae (n = 107)"}, "[13]": {"details": "Streptococcus pneumoniae (302 isolates)"}, "[14]": {"details": "E. faecalis Laboratory No. 55, inoculum 6.0 CFU 10^5/ml"}, "[15]": {"details": "E. faecalis Laboratory No. 60, inoculum 7.0 CFU 10^5/ml"}, "[16]": {"details": "S. aureus Laboratory No. 83, inoculum 7.1 CFU 10^5/ml"}, "[17]": {"details": "S. aureus Laboratory No. 161, inoculum 9.4 CFU 10^5/ml"}, "[18]": {"details": "S. aureus Laboratory No. 636, inoculum 5.6 CFU 10^5/ml"}, "[19]": {"details": "Streptococcus pneumoniae (n = 90)"}}, "note": "Read-outs that look alike come from different tables or passages of the source.", "data": [{"smiles": "CC1COc2c(N3CCN(C)CC3)c(F)cc3c(=O)c(C(=O)O)cn1c23", "note": "(stereo not shown) [Ofloxacin, ofloxacin]", "values": [{"measurement": "MIC Range", "setting": "Streptococcus pneumoniae [1]; Penicillin-intermediate S. pneumoniae (n = 24), in µg/mL (unit assumed)", "result": "0.75-6"}, {"measurement": "MIC50", "setting": "Streptococcus pneumoniae [1]; [11]", "result": 2, "unit": "µg/mL"}, {"measurement": "MIC90", "setting": "Streptococcus pneumoniae [1]; [11]", "result": 3, "unit": "µg/mL"}, {"measurement": "MIC50", "setting": "Streptococcus pneumoniae [1]; [12]", "result": 2, "unit": "µg/mL"}, {"measurement": "MIC90", "setting": "Streptococcus pneumoniae [1]; [12]", "result": 4, "unit": "µg/mL"}, {"measurement": "AUBTC (range)", "setting": "P. aeruginosa [2]", "result": "99 (42-258)"}, {"measurement": "MIC50", "setting": "Streptococcus pneumoniae [3]; [13]", "result": 2, "unit": "µg/mL"}, {"measurement": "MIC Range", "setting": "Streptococcus pneumoniae [3]; [13]", "result": "≤0.06 to 4", "unit": "µg/mL"}, {"measurement": "MIC90", "setting": "Streptococcus pneumoniae [3]; Erythromycin-resistant (86)", "result": 2, "unit": "µg/mL"}, {"measurement": "MIC90", "setting": "Streptococcus pneumoniae [3]; Erythromycin-sensitive (216)", "result": 4, "unit": "µg/mL"}, {"measurement": "MIC90", "setting": "Streptococcus pneumoniae [3]; Penicillin-intermediate (124)", "result": 4, "unit": "µg/mL"}, {"measurement": "MIC90", "setting": "Streptococcus pneumoniae [3]; Penicillin-resistant (80)", "result": 2, "unit": "µg/mL"}, {"measurement": "MIC90", "setting": "Streptococcus pneumoniae [3]; Penicillin-sensitive (98)", "result": 2, "unit": "µg/mL"}, {"measurement": "MIC90", "setting": "Streptococcus pneumoniae [3]; [13]", "result": 4, "unit": "µg/mL"}, {"measurement": "MBC", "setting": "E. faecalis [4]; [14]", "result": 128, "unit": "µg/mL"}, {"measurement": "MIC", "setting": "E. faecalis [4]; [14]", "result": 32, "unit": "µg/mL"}, {"measurement": "MBC", "setting": "E. faecalis [4]; [15]", "result": 2, "unit": "µg/mL"}, {"measurement": "MIC", "setting": "E. faecalis [4]; [15]", "result": 2, "unit": "µg/mL"}, {"measurement": "MIC", "setting": "E. faecalis [4]; E. faecalis isolate (0.06/2)", "result": 2, "unit": "µg/mL"}, {"measurement": "MIC", "setting": "E. faecalis [4]; E. faecalis isolate (0.5/32)", "result": 32, "unit": "µg/mL"}, {"measurement": "MIC", "setting": "P. mirabilis; P. mirabilis Laboratory No. 414, inoculum 2.5 CFU 10^5/ml", "result": 0.125, "unit": "µg/mL"}, {"measurement": "MIC", "setting": "P. mirabilis; Proteus mirabilis", "result": 0.125, "unit": "µg/mL"}, {"measurement": "MBC", "setting": "P. mirabilis; Proteus mirabilis, P. mirabilis Laboratory No. 414, inoculum 2.5 CFU 10^5/ml", "result": 0.125, "unit": "µg/mL"}, {"measurement": "MIC", "setting": "K. pneumoniae; K. pneumoniae Laboratory No. 595, inoculum 3.7 CFU 10^5/ml", "result": 0.06, "unit": "µg/mL"}, {"measurement": "MBC", "setting": "K. pneumoniae; Klebsiella pneumoniae, K. pneumoniae Laboratory No. 595, inoculum 3.7 CFU 10^5/ml", "result": 0.06, "unit": "µg/mL"}, {"measurement": "MIC", "setting": "K. pneumoniae; Klebsiella pneumoniae, K. pneumoniae clinical isolate, read-out: MIC", "result": 0.06, "unit": "µg/mL"}, {"measurement": "MBC", "setting": "S. aureus [5]; [16]", "result": 0.25, "unit": "µg/mL"}, {"measurement": "MIC", "setting": "S. aureus [5]; [16]", "result": 0.25, "unit": "µg/mL"}, {"measurement": "MBC", "setting": "S. aureus [5]; [17]", "result": 4, "unit": "µg/mL"}, {"measurement": "MIC", "setting": "S. aureus [5]; [17]", "result": 4, "unit": "µg/mL"}, {"measurement": "MBC", "setting": "S. aureus [5]; [18]", "result": 32, "unit": "µg/mL"}, {"measurement": "MIC", "setting": "S. aureus [5]; [18]", "result": 32, "unit": "µg/mL"}, {"measurement": "MIC", "setting": "S. aureus [5]; S. aureus isolate (0.008/0.25)", "result": 0.25, "unit": "µg/mL"}, {"measurement": "MIC", "setting": "S. aureus [5]; S. aureus isolate (0.25/4)", "result": 4, "unit": "µg/mL"}, {"measurement": "MIC", "setting": "S. aureus [5]; S. aureus isolate (2/32), quinolone-resistant", "result": 32, "unit": "µg/mL"}, {"measurement": "MIC", "setting": "E. coli; E. coli ATCC 25922, inoculum 1.3 CFU 10^5/ml", "result": 0.06, "unit": "µg/mL"}, {"measurement": "MIC", "setting": "E. coli; E. coli Laboratory No. 523, inoculum 3.4 CFU 10^5/ml", "result": 0.5, "unit": "µg/mL"}, {"measurement": "MIC", "setting": "E. coli; Escherichia coli, ATCC25922, E. coli ATCC 25922 (reference strain), read-out: MIC", "result": 0.06, "unit": "µg/mL"}, {"measurement": "MBC", "setting": "E. coli; Escherichia coli, ATCC25922, E. coli ATCC 25922, inoculum 1.3 CFU 10^5/ml", "result": 0.06, "unit": "µg/mL"}, {"measurement": "MBC", "setting": "E. coli; Escherichia coli, E. coli Laboratory No. 523, inoculum 3.4 CFU 10^5/ml", "result": 0.5, "unit": "µg/mL"}, {"measurement": "MIC", "setting": "E. coli; Escherichia coli, E. coli clinical isolate (0.06/0.5), read-out: MIC", "result": 0.5, "unit": "µg/mL"}, {"measurement": "MIC", "setting": "P. aeruginosa [6]; P. aeruginosa Laboratory No. 568, inoculum 5.6 CFU 10^5/ml", "result": 4, "unit": "µg/mL"}, {"measurement": "MBC", "setting": "P. aeruginosa [6]; Pseudomonas aeruginosa, P. aeruginosa Laboratory No. 568, inoculum 5.6 CFU 10^5/ml", "result": 4, "unit": "µg/mL"}, {"measurement": "MIC", "setting": "P. aeruginosa [6]; Pseudomonas aeruginosa, P. aeruginosa clinical isolate, read-out: MIC", "result": 4, "unit": "µg/mL"}, {"measurement": "MIC50", "setting": "Pseudomonas aeruginosa", "result": 2, "unit": "µg/mL"}, {"measurement": "MIC90", "setting": "Pseudomonas aeruginosa", "result": "> 64", "unit": "µg/mL"}, {"measurement": "MIC Range", "setting": "Streptococcus pneumoniae [7]; [19]", "result": "1 to 16", "unit": "µg/mL"}, {"measurement": "MIC", "setting": "Streptococcus pneumoniae [7]; Strain 1", "result": 2, "unit": "µg/mL"}, {"measurement": "MIC", "setting": "Streptococcus pneumoniae [7]; Strain 2", "result": 2, "unit": "µg/mL"}, {"measurement": "MIC", "setting": "Streptococcus pneumoniae [7]; Strain 3", "result": 16, "unit": "µg/mL"}, {"measurement": "MIC", "setting": "Streptococcus pneumoniae [7]; Strain 4", "result": 8, "unit": "µg/mL"}, {"measurement": "MIC90", "setting": "Streptococcus pneumoniae [7]; S. pneumoniae, Penicillin intermediate (n = 17)", "result": 2, "unit": "µg/mL"}, {"measurement": "MIC90", "setting": "Streptococcus pneumoniae [7]; S. pneumoniae, Penicillin resistant (n = 4)", "result": 1, "unit": "µg/mL"}, {"measurement": "MIC90", "setting": "Streptococcus pneumoniae [7]; S. pneumoniae, Penicillin susceptible (n = 69)", "result": 2, "unit": "µg/mL"}, {"measurement": "MIC90", "setting": "Streptococcus pneumoniae [7]; [19]", "result": 2, "unit": "µg/mL"}, {"measurement": "tolerability", "setting": "[8]", "result": "well tolerated"}, {"measurement": "AUBTC (range)", "setting": "S. aureus [9]; S. aureus (13) Laboratory No. 636", "result": "105 (0-279)"}, {"measurement": "AUBTC (range)", "setting": "S. aureus [9]; S. aureus (16) Laboratory No. 83", "result": "387 (162-570)"}, {"measurement": "AUBTC (range)", "setting": "S. aureus [9]; S. aureus (16) Laboratory No. 161", "result": "39 (0-78)"}, {"measurement": "AUBTC (range)", "setting": "E. faecalis [10]; E. faecalis (13) Laboratory No. 55", "result": "0 (0-54)"}, {"measurement": "AUBTC (range)", "setting": "E. faecalis [10]; E. faecalis (16) Laboratory No. 60", "result": "135 (90-204)"}]}]}
